Columns and labels:
Plasmodium falciparum [1] = assay: Antimalarial activity against chloroquine-sensitive Plasmodium falciparum 3D7 infected in erythroctes incubated for 72 hrs by SYBR green 1 based spectrofluorometer; assay type: functional, organism-based, Erythrocyte
Plasmodium falciparum [2] = assay: Antimalarial activity against chloroquine-resistant Plasmodium falciparum K1 infected in erythroctes incubated for 72 hrs by SYBR green 1 based spectrofluorometer; assay type: functional, organism-based, Erythrocyte
[3] = Plasmodium falciparum, 3D7, Erythrocyte, 72 h
[4] = Plasmodium falciparum, K1, Erythrocyte, 72 h

SMILES | EC50 (Plasmodium falciparum [1]; erythrocyte) [nM] | EC50 (Plasmodium falciparum [2]; erythrocyte) [nM] | EC50 (Plasmodium falciparum [1]; [3]) [nM] | EC50 (Plasmodium falciparum [2]; [4]) [nM]
CCOC(=O)C1=C(C)NC2=C(C(=O)OC(c3ccc(OC)c(OC)c3)C2)C1c1ccccc1OC (mixture of isomers) | > 5500 | – | – | –
COc1ccc(C2CC3=C(C(=O)O2)C(c2ccccc2Cl)C(C(=O)OC(C)(C)C)=C(C)N3)cc1OC (stereo in doubt; 30B) | – | 272 | – | –
CCCOC(=O)C1=C(C)NC2=C(C(=O)OC(c3ccc(OC)c(OC)c3)C2)C1c1ccccc1Cl (mixture of isomers) | 1670 | 1630 | – | –
CCOC(=O)C1=C(C)NC2=C(C(=O)OC(c3ccc(Cl)c(OC)c3)C2)C1c1ccccc1Cl (mixture of isomers) | 595 | 345 | – | –
CCOC(=O)C1=C(C)NC2=C(C(=O)OC(c3ccc(Cl)cc3)C2)C1c1ccccc1Cl (stereo in doubt; 20B) | 2860 | 2160 | – | –
CCOC(=O)C1=C(C)NC2=C(C(=O)OC(c3ccc(Cl)c(OC)c3)C2)C1c1ccc(Cl)cc1C (mixture of isomers) | 80 | 73.2 | – | –
CCOC(=O)C1=C(C)NC2=C(C(=O)CC(c3ccc(Cl)c(OC)c3)C2)C1c1ccc(Cl)cc1C (mixture of isomers) | 78.3 | 69.1 | – | –
CCOC(=O)C1=C(C)NC2=C(C(=O)OC(c3ccc(OC)c(OC)c3)C2)C1c1ccc(Cl)cc1 (stereo in doubt; 5B) | 47.6 | 53.8 | – | –
CCOC(=O)C1=C(C)NC2=C(C(=O)OC(c3ccc(Cl)cc3)C2)C1c1ccccc1Cl (mixture of isomers) | > 5500 | > 5500 | – | –
CCOC(=O)C1=C(C)NC2=C(C(=O)CC(c3ccc(OC)c(OC)c3)C2)C1c1ccccc1Cl (stereo in doubt; 2B) | 13.5 | 15.7 | – | –
COCC1=C(C(=O)OC)C(c2ccc(Cl)cc2C)C2=C(CC(c3ccc(OC)c(OC)c3)OC2=O)N1 (mixture of isomers) | 112 | 81.3 | – | –
CCOC(=O)C1=C(C)NC2=C(C(=O)CC(c3ccc(OC)c(OC)c3)C2)C1c1ccc(Cl)cc1 (mixture of isomers) | 16.3 | 18.9 | – | –
CCOC(=O)C1=C(C)NC2=C(C(=O)OC(c3ccc(OC)c(OC)c3)C2)C1c1ccc(Br)cc1 (mixture of isomers) | 213 | 634 | – | –
CCOC(=O)C1=C(C)NC2=C(C(=O)OC(c3ccccc3)C2)C1c1ccccc1Cl (stereo in doubt; 17B) | > 11000 | – | – | –
CCOC(=O)C1=C(C)NC2=C(C(=O)OC(c3ccc(OC)cc3)C2)C1c1ccccc1Cl (stereo in doubt; 26B) | 2160 | 1960 | – | –
CCOC(=O)C1=C(C(=O)OCC)C(c2ccccc2Cl)C2=C(CC(c3ccc(OC)c(OC)c3)OC2=O)N1 (stereo in doubt; 33B) | 119 | 77.6 | – | –
CCOC(=O)C1=C(C)NC2=C(C(=O)OC(c3cccc(OC)c3)C2)C1c1ccccc1Cl (mixture of isomers) | 2420 | > 6000 | – | –
CCOC(=O)C1=C(C)NC2=C(C(=O)CC(c3ccc(OC)c(OC)c3)C2)C1c1ccccc1Cl (mixture of isomers) | 17.1 | 28 | – | –
CCOC(=O)C1=C(C)NC2=C(C(=O)OC(c3ccccc3)C2)C1c1ccccc1Cl (mixture of isomers) | > 10000 | – | – | –
COc1ccc(C2CC(=O)C3=C(C2)NC(C)=C(C(=O)O)C3c2ccccc2Cl)cc1OC (stereo in doubt; 27B) | > 12000 | – | – | –
COC(=O)C1=C(C)NC2=C(C(=O)OC(c3ccc(OC)c(OC)c3)C2)C1c1ccccc1Cl (stereo in doubt; 28B) | 798 | 417 | – | –
CCOC(=O)C1=C(C)NC2=C(C(=O)CC(c3cc(OC)c(OC)c(OC)c3)C2)C1c1ccccc1Cl (mixture of isomers) | 3.6 | 4.9 | – | –
CCCOC(=O)C1=C(C)NC2=C(C(=O)OC(c3ccc(OC)c(OC)c3)C2)C1c1ccccc1Cl (stereo in doubt; 29B) | 458 | 332 | – | –
CCOC(=O)C1=C(C)NC2=C(C(=O)CC(c3ccc(Cl)c(OC)c3)C2)C1c1ccccc1Cl (mixture of isomers) | 47.7 | 51.2 | – | –
COCC1=C(C(=O)OC)C(c2ccc(Cl)cc2)C2=C(CC(c3cc(OC)c(OC)c(OC)c3)OC2=O)N1 (mixture of isomers) | 30.8 | 43.6 | – | –
CCCC1=C(C(=O)OCC)C(c2ccc(Cl)cc2C)C2=C(CC(c3ccc(OC)c(OC)c3)OC2=O)N1 (mixture of isomers) | 30 | 22 | – | –

SMILES | EC50 (Plasmodium falciparum [1]; erythrocyte) [nM] | EC50 (Plasmodium falciparum [2]; erythrocyte) [nM] | EC50 (Plasmodium falciparum [1]; [3]) [nM] | EC50 (Plasmodium falciparum [2]; [4]) [nM]
CCCC1=C(C(=O)OCC)C(c2ccccc2Cl)C2=C(CC(c3ccc(OC)c(OC)c3)OC2=O)N1 (mixture of isomers) | 29 | 15.5 | – | –
CCOC(=O)C1=C(C)NC2=C(C(=O)OC(c3cccc(OC)c3)C2)C1c1ccccc1Cl (stereo in doubt; 25B) | 626 | 363 | – | –
CCOC(=O)C1=C(C)NC2=C(C(=O)OC(c3ccc(OC)c(OC)c3)C2)C1c1ccc(C)cc1 (stereo in doubt; 8B) | 638 | 605 | – | –
CCCC1=C(C(=O)OCC)C(c2ccc(Cl)cc2C)C2=C(CC(c3cc(OC)ccc3OC)CC2=O)N1 (stereo in doubt; 48B) | 37.5 | 46.8 | – | –
CCOC(=O)C1=C(C)NC2=C(C(=O)OC(c3ccc(OC)c(OC)c3)C2)C1c1ccccc1 (stereo in doubt; 1B) | 83 | 80 | – | –
COCC1=C(C(=O)OC)C(c2ccc(Cl)cc2C)C2=C(CC(c3ccc(OC)c(OC)c3)CC2=O)N1 (mixture of isomers) | 2.4 | 4.6 | – | –
CCCC1=C(C(=O)OCC)C(c2ccc(Cl)cc2C)C2=C(CC(c3cc(OC)ccc3OC)CC2=O)N1 (mixture of isomers) | 55.1 | 44.4 | – | –
COc1ccc(C2CC3=C(C(=O)O2)C(c2ccccc2Cl)C(C(=O)OCc2ccccc2)=C(C)N3)cc1OC (stereo in doubt; 31B) | > 9100 | > 9100 | – | –
CCOC(=O)C1=C(c2ccccc2)NC2=C(C(=O)CC(c3ccc(OC)c(OC)c3)C2)C1c1ccccc1Cl (mixture of isomers) | 176 | 92.3 | – | –
COC(=O)C1=C(C)NC2=C(C(=O)OC(c3ccc(OC)c(OC)c3)C2)C1c1ccccc1Cl (mixture of isomers) | > 9400 | > 9400 | – | –
CCOC(=O)C1=C(C)NC2=C(C(=O)OC(c3ccc(OC)c(OC)c3)C2)C1c1ccc(Br)cc1 (stereo in doubt; 12B) | 59 | 341 | – | –
COCC1=C(C(=O)OC)C(c2ccc(Cl)cc2)C2=C(CC(c3cc(OC)c(OC)c(OC)c3)OC2=O)N1 (stereo in doubt; 56B) | 29 | 42.3 | – | –
CCN(CC)CCCC(C)Nc1ccnc2cc(Cl)ccc12 (stereo not drawn) [CHLOROQUINE] | – | – | 48 | 1360
CCOC(=O)C1=C(C)NC2=C(C(=O)OC(c3ccccc3OC)C2)C1c1ccccc1Cl (stereo in doubt; 24B) | > 5500 | > 5500 | – | –
CCOC(=O)C1=C(C)NC2=C(C(=O)OC(c3ccc(OC)c(OC)c3)C2)C1c1ccc(C)cc1 (mixture of isomers) | 1250 | 1610 | – | –
CCOC(=O)C1=C(C)NC2=C(C(=O)OC(c3ccc(OC)c(OC)c3)C2)C1c1ccccc1C (mixture of isomers) | 72.7 | 123 | – | –
COc1ccc(C2CC3=C(C(=O)O2)C(c2ccccc2Cl)C(C(=O)OC(C)(C)C)=C(C)N3)cc1OC (mixture of isomers) | – | 2650 | – | –
CCOC(=O)C1=C(C)NC2=C(C(=O)OC(c3ccc(OC)c(OC)c3)C2)C1c1ccccc1OC (stereo in doubt; 9B) | 2050 | > 5500 | – | –
OC(c1cc(C(F)(F)F)nc2c(C(F)(F)F)cccc12)C1CCCCN1 (stereo not drawn) [MEFLOQUINE] | – | – | 62 | 31
CCOC(=O)C1=C(C)NC2=C(C(=O)OC(c3ccc(C)cc3)C2)C1c1ccccc1Cl (stereo in doubt; 23B) | > 6000 | 1580 | – | –
CCOC(=O)C1=C(C)NC2=C(C(=O)OC(c3ccccc3Cl)C2)C1c1ccccc1Cl (mixture of isomers) | > 6000 | > 6000 | – | –
CCCC1=C(C(=O)OCC)C(c2ccc(Cl)cc2C)C2=C(CC(c3ccc(Cl)c(OC)c3)CC2=O)N1 (mixture of isomers) | 27.9 | 48.9 | – | –
CCOC(=O)C1=C(C)NC2=C(C(=O)OC(c3ccc(OC)c(OC)c3)C2)C1c1ccc(Cl)cc1 (stereo in doubt; 5) | 91.8 | 160 | – | –
CCOC(=O)C1=C(C)NC2=C(C(=O)OC(c3ccc(OC)c(OC)c3)C2)C1c1ccccc1C (stereo in doubt; 6B) | 38.5 | 59.7 | – | –
CCCC1=C(C(=O)OCC)C(c2ccccc2Cl)C2=C(CC(c3ccc(OC)c(OC)c3)CC2=O)N1 (mixture of isomers) | 2.3 | 3.8 | – | –
CCOC(=O)C1=C(C(=O)OCC)C(c2ccccc2Cl)C2=C(CC(c3ccc(OC)c(OC)c3)OC2=O)N1 (mixture of isomers) | 58.7 | 22.2 | – | –
